In brackets after ≈: the same amount, converted by molar mass.
Legend:
Staphylococcus aureus [1] = experiment: Antibacterial activity against Staphylococcus aureus ATCC 29213 measured after 24 hrs by broth microdilution method; format: functional
Bacillus subtilis = experiment: Antibacterial activity against Bacillus subtilis 168 measured after 24 hrs by broth microdilution method; format: functional
Micrococcus luteus = experiment: Antibacterial activity against Micrococcus luteus clinical isolate measured after 24 hrs by broth microdilution method; format: functional
Escherichia coli [2] = experiment: Antibacterial activity against Escherichia coli MG 1655 measured after 24 hrs by broth microdilution method; format: functional
Pseudomonas aeruginosa [3] = experiment: Antibacterial activity against Pseudomonas aeruginosa ATCC 27853 measured after 24 hrs by broth microdilution method; format: functional
[4] = Cytotoxicity against human HEK293 cells assessed as cell viability measured after 72 hrs by MTT assay; format: cell-based
[5] = Cytotoxicity against human mesenchymal stem cells assessed as cell viability measured after 72 hrs by MTT assay; format: cell-based
[6] = Cytotoxicity against human skin fibroblasts assessed as cell viability measured after 72 hrs by MTT assay; format: cell-based, Fibroblast
[7] = Acute toxicity in po dosed C57BL/6CBA mouse measured upto 7 days; format: organism-based; conditions: in vivo, time <=7 day
[8] = Lipophilicity, logP of the compound; format: physicochemical; conditions: octanol/water
[9] = tested on: Staphylococcus ureilyticus; experiment: Antibacterial activity against clinical isolate Staphylococcus ureilyticus 1972 measured after 24 hrs by broth microdilution method; format: functional
[10] = Genotoxicity in Salmonella typhimurium TA1535/pSK1002 assessed as DNA-damage activity by measuring beta-galactosidase activity at 750 ug/ml measured by SOS-chromotest relative to solvent control; format: toxicity; conditions: salmonella enterica subsp. enterica serovar typhimurium; dose 750 µg/ml
[11] = Genotoxicity in Salmonella typhimurium TA1535/pSK1002 assessed as DNA-damage activity by measuring beta-galactosidase activity at 150 ug/ml measured by SOS-chromotest relative to solvent control; format: toxicity; conditions: salmonella enterica subsp. enterica serovar typhimurium; dose 150 µg/ml
[12] = Genotoxicity in Salmonella typhimurium TA1535/pSK1002 assessed as DNA-damage activity by measuring beta-galactosidase activity at 75 ug/ml measured by SOS-chromotest relative to solvent control; format: toxicity; conditions: salmonella enterica subsp. enterica serovar typhimurium; dose 75 µg/ml
[13] = Genotoxicity in Salmonella typhimurium TA1535/pSK1002 assessed as DNA-damage activity by measuring beta-galactosidase activity at 15 ug/ml measured by SOS-chromotest relative to solvent control; format: toxicity; conditions: salmonella enterica subsp. enterica serovar typhimurium; dose 15 µg/ml
[14] = Genotoxicity in Salmonella typhimurium TA1535/pSK1002 assessed as DNA-damage activity by measuring beta-galactosidase activity at 7.5 ug/ml measured by SOS-chromotest relative to solvent control; format: toxicity; conditions: salmonella enterica subsp. enterica serovar typhimurium; dose 7.5 µg/ml
[15] = Genotoxicity in Salmonella typhimurium TA1535 assessed as number of revertant by Ames spot test relative to solvent control; format: toxicity; conditions: salmonella enterica subsp. enterica serovar typhimurium
[16] = Genotoxicity in Salmonella typhimurium TA1537 assessed as number of revertant by Ames spot test relative to solvent control; format: toxicity; conditions: salmonella enterica subsp. enterica serovar typhimurium
[17] = Genotoxicity in Salmonella typhimurium TA98 assessed as number of revertant by Ames spot test relative to solvent control; format: toxicity; conditions: salmonella enterica subsp. enterica serovar typhimurium
[18] = Genotoxicity in Salmonella typhimurium TA100 assessed as number of revertant by Ames spot test relative to solvent control; format: toxicity; conditions: salmonella enterica subsp. enterica serovar typhimurium
Staphylococcus aureus [19] = experiment: Antibacterial activity against clinical isolate methicillin-resistant Staphylococcus aureus 713 measured after 24 hrs by broth microdilution method; format: functional
Staphylococcus aureus [20] = experiment: Antibacterial activity against clinical isolate methicillin-resistant Staphylococcus aureus 983 measured after 24 hrs by broth microdilution method; format: functional
Staphylococcus aureus [21] = experiment: Antibacterial activity against clinical isolate methicillin-resistant Staphylococcus aureus 1053 measured after 24 hrs by broth microdilution method; format: functional
[22] = tested on: Staphylococcus intermedius; experiment: Antibacterial activity against clinical isolate methicillin-resistant Staphylococcus intermedius 1061 measured after 24 hrs by broth microdilution method; format: functional
Staphylococcus aureus [23] = experiment: Antibacterial activity against clinical isolate methicillin-resistant Staphylococcus aureus 1065 measured after 24 hrs by broth microdilution method; format: functional
Staphylococcus aureus [24] = experiment: Antibacterial activity against clinical isolate methicillin-resistant Staphylococcus aureus 1131 measured after 24 hrs by broth microdilution method; format: functional
[25] = tested on: Staphylococcus intermedius; experiment: Antibacterial activity against clinical isolate methicillin-resistant Staphylococcus intermedius 1143 measured after 24 hrs by broth microdilution method; format: functional
Staphylococcus aureus [26] = experiment: Antibacterial activity against clinical isolate Staphylococcus aureus 25 measured after 24 hrs by broth microdilution method; format: functional
Enterococcus faecalis [27] = experiment: Antibacterial activity against clinical isolate Enterococcus faecalis 23 measured after 24 hrs by broth microdilution method; format: functional
Enterococcus faecalis [28] = experiment: Antibacterial activity against clinical isolate Enterococcus faecalis 3063 measured after 24 hrs by broth microdilution method; format: functional
Acinetobacter sp. = experiment: Antibacterial activity against clinical isolate Acinetobacter sp. 3 measured after 24 hrs by broth microdilution method; format: functional
Pseudomonas sp. = experiment: Antibacterial activity against clinical isolate Pseudomonas sp. 5 measured after 24 hrs by broth microdilution method; format: functional
Klebsiella sp. = experiment: Antibacterial activity against clinical isolate Klebsiella sp. 11 measured after 24 hrs by broth microdilution method; format: functional
Proteus sp. = experiment: Antibacterial activity against clinical isolate Proteus sp. 17 measured after 24 hrs by broth microdilution method; format: functional; conditions: Proteus sp. (in: enterobacteria)
Escherichia coli [29] = experiment: Antibacterial activity against clinical isolate Escherichia coli 718 measured after 24 hrs by broth microdilution method; format: functional
Moraxella = experiment: Antibacterial activity against clinical isolate Moraxella 765 measured after 24 hrs by broth microdilution method; format: functional
Klebsiella pneumoniae = experiment: Antibacterial activity against clinical isolate Klebsiella pneumoniae 1813 measured after 24 hrs by broth microdilution method; format: functional
Pseudomonas aeruginosa [30] = experiment: Antibacterial activity against clinical isolate Pseudomonas aeruginosa 1945 measured after 24 hrs by broth microdilution method; format: functional
Serratia marcescens = experiment: Antibacterial activity against clinical isolate Serratia marcescens 1966 measured after 24 hrs by broth microdilution method; format: functional

Row | Compound | MIC (Staphylococcus aureus [1]) [µg/mL] | MIC (Bacillus subtilis) [µg/mL] | MIC (Micrococcus luteus) [µg/mL] | MIC (Escherichia coli [2]) [µg/mL] | MIC (Pseudomonas aeruginosa [3]) [µg/mL] | CC50 at 72 h [4] [µg/mL] | CC50 at 72 h [5] [µg/mL] | CC50 at 72 h [6] [µg/mL] | logP [8] | MIC [9] [µg/mL] | Ratio [10] | Ratio [11] | Ratio [12] | Ratio [13] | Ratio [14] | Ratio [15] | Ratio [16] | Ratio [17] | Ratio [18] | MIC (Staphylococcus aureus [19]) [µg/mL] | further results
1 | [H]/N=C(\N/C(=N/[H])NCCCCCCNC(=N)NC(=N)Nc1ccc(Cl)cc1)Nc1ccc(Cl)cc1 [CHLORHEXIDINE] | 2 (≈ 3.96 µM) | 1 (≈ 1.98 µM) | 0.5 (≈ 0.989 µM) | 1 (≈ 1.98 µM) | 4 (≈ 7.91 µM) | 7.28 (≈ 14.4 µM) | 5.12 (≈ 10.1 µM) | 6.32 (≈ 12.5 µM) | 4.51 | – | – | – | – | – | – | – | – | – | – | – | LD50 at 168 h [7]: 1260 mg/kg
2 | CCCCCCCCCCCCCC(=O)OCC[N+](C)(C)Cc1nc(C)c2c(c1CO)COC(C)(C)O2.[Cl-] | 1 | 0.5 | 1 | 32 | > 64 | 0.88 | 1.02 | 2.24 | 1.46 | > 64 | 0.3 | 0.9 | 1.2 | 1.6 | 1.8 | 0.4 | 0.05 | 2.5 | 2.1 | 2 | MIC (Staphylococcus aureus [20]): 32 µg/mL; MIC (Staphylococcus aureus [21]): 2 µg/mL; MIC [22]: 4 µg/mL; MIC (Staphylococcus aureus [23]): 4 µg/mL; MIC (Staphylococcus aureus [24]): 4 µg/mL; MIC [25]: 4 µg/mL; MIC (Staphylococcus aureus [26]): 2 µg/mL; MIC (Enterococcus faecalis [27]): 2 µg/mL; MIC (Enterococcus faecalis [28]): 2 µg/mL; MIC (Acinetobacter sp.): 64 µg/mL; MIC (Pseudomonas sp.): 64 µg/mL; MIC (Klebsiella sp.): 64 µg/mL; MIC (Proteus sp.): > 64 µg/mL; MIC (Escherichia coli [29]): 32 µg/mL; MIC (Moraxella): 64 µg/mL; MIC (Klebsiella pneumoniae): 2 µg/mL; MIC (Pseudomonas aeruginosa [30]): 64 µg/mL; MIC (Serratia marcescens): > 64 µg/mL
3 | CCCCCCCCCCCCCC(=O)NCC[N+](C)(C)Cc1cnc(C)c2c1COC(C)(CCC)O2.[Cl-] (configuration not stated) | 1 | 2 | 1 | 32 | 8 | 1.16 | 1.38 | 2.15 | 2.24 | > 64 | 0.3 | 0.5 | 0.9 | 1.6 | 1.5 | 0.5 | 0.03 | 4.4 | 0.7 | 2 | MIC (Staphylococcus aureus [20]): 16 µg/mL; MIC (Staphylococcus aureus [21]): 1 µg/mL; MIC [22]: 2 µg/mL; MIC (Staphylococcus aureus [23]): 2 µg/mL; MIC (Staphylococcus aureus [24]): 2 µg/mL; MIC [25]: 2 µg/mL; MIC (Staphylococcus aureus [26]): 2 µg/mL; MIC (Enterococcus faecalis [27]): 1 µg/mL; MIC (Enterococcus faecalis [28]): 1 µg/mL; MIC (Acinetobacter sp.): 32 µg/mL; MIC (Pseudomonas sp.): 32 µg/mL; MIC (Klebsiella sp.): 32 µg/mL; MIC (Proteus sp.): > 64 µg/mL; MIC (Escherichia coli [29]): 8 µg/mL; MIC (Moraxella): 16 µg/mL; MIC (Klebsiella pneumoniae): 8 µg/mL; MIC (Pseudomonas aeruginosa [30]): 64 µg/mL; MIC (Serratia marcescens): 64 µg/mL
4 | CCCCCCCCCCCCCC(=O)OCC[N+](C)(C)Cc1cnc(C)c2c1COC(CCC)O2.[Cl-] (configuration not stated) | 0.5 | 4 | 0.5 | 16 | 1 | 1 | 1.28 | 2.18 | 2.97 | > 64 | 0.3 | 1.3 | 1.5 | 1.5 | 1.4 | 0.4 | 0.04 | 4.7 | 1.2 | 2 | MIC (Staphylococcus aureus [20]): 64 µg/mL; MIC (Staphylococcus aureus [21]): 2 µg/mL; MIC [22]: 2 µg/mL; MIC (Staphylococcus aureus [23]): 2 µg/mL; MIC (Staphylococcus aureus [24]): 4 µg/mL; MIC [25]: 4 µg/mL; MIC (Staphylococcus aureus [26]): 2 µg/mL; MIC (Enterococcus faecalis [27]): 4 µg/mL; MIC (Enterococcus faecalis [28]): 4 µg/mL; MIC (Acinetobacter sp.): 64 µg/mL; MIC (Pseudomonas sp.): 64 µg/mL; MIC (Klebsiella sp.): 32 µg/mL; MIC (Proteus sp.): > 64 µg/mL; MIC (Escherichia coli [29]): 32 µg/mL; MIC (Moraxella): 64 µg/mL; MIC (Klebsiella pneumoniae): 64 µg/mL; MIC (Pseudomonas aeruginosa [30]): > 64 µg/mL; MIC (Serratia marcescens): > 64 µg/mL
5 | CCCCCCCCCCCC(=O)OCCC[N+](C)(C)Cc1cnc(C)c2c1COC(CCC)O2.[Cl-] (configuration not stated) | 2 | 2 | 1 | 4 | 32 | 2.15 | 2.42 | 4.32 | 2.14 | > 64 | 0.5 | 1.1 | 1.5 | 1.4 | 1.4 | 0.5 | 0.03 | 1.8 | 2.4 | 16 | MIC (Staphylococcus aureus [20]): 32 µg/mL; MIC (Staphylococcus aureus [21]): 8 µg/mL; MIC [22]: 16 µg/mL; MIC (Staphylococcus aureus [23]): 16 µg/mL; MIC (Staphylococcus aureus [24]): 16 µg/mL; MIC [25]: 16 µg/mL; MIC (Staphylococcus aureus [26]): 8 µg/mL; MIC (Enterococcus faecalis [27]): 4 µg/mL; MIC (Enterococcus faecalis [28]): 4 µg/mL; MIC (Acinetobacter sp.): 64 µg/mL; MIC (Pseudomonas sp.): 32 µg/mL; MIC (Klebsiella sp.): 32 µg/mL; MIC (Proteus sp.): > 64 µg/mL; MIC (Escherichia coli [29]): 8 µg/mL; MIC (Moraxella): 64 µg/mL; MIC (Klebsiella pneumoniae): > 64 µg/mL; MIC (Pseudomonas aeruginosa [30]): > 64 µg/mL; MIC (Serratia marcescens): > 64 µg/mL

From ChEMBL document CHEMBL4819019, “Design, synthesis, antibacterial activity and toxicity of novel quaternary ammonium compounds based on pyridoxine and fatty acids” (Eur J Med Chem, 2021)
